In the supplement of paper PMC11451515:

Assays:
Details in all cases: 48 h
NOMO1 [1] = experiment: cell viability relative to DMSO control; higher = less cytotoxic
In short: (§1)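 In 1536-well plates, 5 μl of leukemia cells were seeded per well: 500 cells/well for NOMO1 or SEM and 1000 cells/well for P12-Ichikawa. Each line had first been adapted for at least four passages in each medium. Library compounds in DMSO were pin-dosed at 11 threefold concentrations between 47 μM and 0.79 nM, and CellTiter-Glo One luminescence was read after 48 h at 37°C. Viability is a per-plate percentage relative to DMSO wells, with cell-free wells as background.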

SEM cells [2] = experiment: as above
In short: as §1

P12-Ichikawa [3] = experiment: as above
In short: as §1

NOMO1 [4] = experiment: AUC of viability dose-response curve (% viability x log10 dose units); higher = less sensitive
In short: (§2)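 Viability of medium-adapted leukemia cells was measured by CellTiter-Glo One luminescence after 48 h at 37°C with library compounds in DMSO. Doses were 11 threefold steps from 47 μM to 0.79 nM, in 1536-well plates at 500 or 1000 cells/well. Signals were normalised per plate to DMSO and cell-free wells and fitted with a four-parameter log-logistic model on log10 dose. Area under the curve was integrated by trapezoidal rule, with curves exceeding full viability scaled and failed quality-control curves removed.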

SEM cells [5] = experiment: as above
In short: as §2

P12-Ichikawa [6] = experiment: as above
In short: as §2

CNC(=O)c1ccccc1Sc1ccc2c(/C=C/c3ccccn3)n[nH]c2c1
cell viability [%]
Details	NOMO1 [1]	P12-Ichikawa [3]	SEM cells [2]
HPLM + 10% dialyzed FBS, 0.000781 µM	–	116	119
HPLM + 10% dialyzed FBS, 0.00234 µM	–	111	109
HPLM + 10% dialyzed FBS, 0.00702 µM	–	107	119
HPLM + 10% dialyzed FBS, 0.0211 µM	–	115	116
HPLM + 10% dialyzed FBS, 0.0632 µM	–	112	120
HPLM + 10% dialyzed FBS, 0.19 µM	–	109	118
HPLM + 10% dialyzed FBS, 0.569 µM	–	106	114
HPLM + 10% dialyzed FBS, 1.71 µM	–	84.5	115
HPLM + 10% dialyzed FBS, 5.12 µM	–	77.8	73.4
HPLM + 10% dialyzed FBS, 15.4 µM	–	17.9	33.5
HPLM + 10% dialyzed FBS, 46.1 µM	–	14	30.5
RPMI 5 mM glucose + 10% FBS, 0.000781 µM	108	117	–
RPMI 5 mM glucose + 10% FBS, 0.00234 µM	116	116	–
RPMI 5 mM glucose + 10% FBS, 0.00702 µM	107	126	–
RPMI 5 mM glucose + 10% FBS, 0.0211 µM	115	116	–
RPMI 5 mM glucose + 10% FBS, 0.0632 µM	118	110	–
RPMI 5 mM glucose + 10% FBS, 0.19 µM	105	97.2	–
RPMI 5 mM glucose + 10% FBS, 0.569 µM	112	108	–
RPMI 5 mM glucose + 10% FBS, 1.71 µM	91.5	87	–
RPMI 5 mM glucose + 10% FBS, 5.12 µM	74.8	78.9	–
RPMI 5 mM glucose + 10% FBS, 15.4 µM	68.8	28	–
RPMI 5 mM glucose + 10% FBS, 46.1 µM	84.2	21.6	–
RPMI 5 mM glucose + 10% dialyzed FBS, 0.000781 µM	103	–	–
RPMI 5 mM glucose + 10% dialyzed FBS, 0.00234 µM	119	–	–
RPMI 5 mM glucose + 10% dialyzed FBS, 0.00702 µM	123	–	–
RPMI 5 mM glucose + 10% dialyzed FBS, 0.0211 µM	109	–	–
RPMI 5 mM glucose + 10% dialyzed FBS, 0.0632 µM	104	–	–
RPMI 5 mM glucose + 10% dialyzed FBS, 0.19 µM	100	–	–
RPMI 5 mM glucose + 10% dialyzed FBS, 0.569 µM	107	–	–
RPMI 5 mM glucose + 10% dialyzed FBS, 1.71 µM	74.9	–	–
RPMI 5 mM glucose + 10% dialyzed FBS, 5.12 µM	74.8	–	–
RPMI 5 mM glucose + 10% dialyzed FBS, 15.4 µM	68.8	–	–
RPMI 5 mM glucose + 10% dialyzed FBS, 46.1 µM	67.9	–	–

AUC of viability dose-response curve
Details	NOMO1 [4]	P12-Ichikawa [6]	SEM cells [5]
HPLM + 10% dialyzed FBS	425	390	407
RPMI 5 mM glucose + 10% FBS	430	386	389
RPMI 5 mM glucose + 10% dialyzed FBS	418	409	395

CCc1nc(C(N)=O)c(Nc2ccc(N3CCC(N4CCN(C)CC4)CC3)c(OC)c2)nc1NC1CCOCC1
cell viability [%]
Details	NOMO1 [1]	P12-Ichikawa [3]	SEM cells [2]
HPLM + 10% dialyzed FBS, 0.000781 µM	–	106	92.9
HPLM + 10% dialyzed FBS, 0.00234 µM	–	103	105
HPLM + 10% dialyzed FBS, 0.00702 µM	–	111	120
HPLM + 10% dialyzed FBS, 0.0211 µM	–	111	104
HPLM + 10% dialyzed FBS, 0.0632 µM	–	114	95.5
HPLM + 10% dialyzed FBS, 0.19 µM	–	97.4	65
HPLM + 10% dialyzed FBS, 0.569 µM	–	97.7	42.9
HPLM + 10% dialyzed FBS, 1.71 µM	–	102	36.3
HPLM + 10% dialyzed FBS, 5.12 µM	–	91.7	21.1
HPLM + 10% dialyzed FBS, 15.4 µM	–	75.1	17.8
HPLM + 10% dialyzed FBS, 46.1 µM	–	52.6	14.6
RPMI 5 mM glucose + 10% FBS, 0.000781 µM	99.1	103	–
RPMI 5 mM glucose + 10% FBS, 0.00234 µM	103	101	–
RPMI 5 mM glucose + 10% FBS, 0.00702 µM	109	109	–
RPMI 5 mM glucose + 10% FBS, 0.0211 µM	124	117	–
RPMI 5 mM glucose + 10% FBS, 0.0632 µM	104	112	–
RPMI 5 mM glucose + 10% FBS, 0.19 µM	112	100	–
RPMI 5 mM glucose + 10% FBS, 0.569 µM	103	98.7	–
RPMI 5 mM glucose + 10% FBS, 1.71 µM	93.7	102	–
RPMI 5 mM glucose + 10% FBS, 5.12 µM	64.2	88.9	–
RPMI 5 mM glucose + 10% FBS, 15.4 µM	55.8	71.1	–
RPMI 5 mM glucose + 10% FBS, 46.1 µM	43.1	52.3	–
RPMI 5 mM glucose + 10% dialyzed FBS, 0.000781 µM	124	110	115
RPMI 5 mM glucose + 10% dialyzed FBS, 0.00234 µM	112	109	97.9
RPMI 5 mM glucose + 10% dialyzed FBS, 0.00702 µM	101	123	138
RPMI 5 mM glucose + 10% dialyzed FBS, 0.0211 µM	123	111	139
RPMI 5 mM glucose + 10% dialyzed FBS, 0.0632 µM	147	131	94
RPMI 5 mM glucose + 10% dialyzed FBS, 0.19 µM	99.9	104	69.6
RPMI 5 mM glucose + 10% dialyzed FBS, 0.569 µM	77.9	108	43
RPMI 5 mM glucose + 10% dialyzed FBS, 1.71 µM	78.7	110	33.1
RPMI 5 mM glucose + 10% dialyzed FBS, 5.12 µM	57.5	94.8	17
RPMI 5 mM glucose + 10% dialyzed FBS, 15.4 µM	38.1	75.9	18.3
RPMI 5 mM glucose + 10% dialyzed FBS, 46.1 µM	33.3	42.1	12.2

AUC of viability dose-response curve
Details	NOMO1 [4]	P12-Ichikawa [6]	SEM cells [5]
HPLM + 10% dialyzed FBS	389	438	291
RPMI 5 mM glucose + 10% FBS	410	436	285
RPMI 5 mM glucose + 10% dialyzed FBS	363	434	277

CC(C)(OCc1nn(Cc2ccccc2)c2ccccc12)C(=O)O
cell viability [%]
Details	NOMO1 [1]	P12-Ichikawa [3]	SEM cells [2]
HPLM + 10% dialyzed FBS, 0.000781 µM	101	104	100
HPLM + 10% dialyzed FBS, 0.00234 µM	99.8	101	101
HPLM + 10% dialyzed FBS, 0.00702 µM	108	101	95.4
HPLM + 10% dialyzed FBS, 0.0211 µM	116	104	103
HPLM + 10% dialyzed FBS, 0.0632 µM	120	102	116
HPLM + 10% dialyzed FBS, 0.19 µM	84.4	96	97.4
HPLM + 10% dialyzed FBS, 0.569 µM	108	103	108
HPLM + 10% dialyzed FBS, 1.71 µM	114	101	100
HPLM + 10% dialyzed FBS, 5.12 µM	88.8	101	97.5
HPLM + 10% dialyzed FBS, 15.4 µM	85.2	96.3	109
HPLM + 10% dialyzed FBS, 46.1 µM	99.1	105	92.6
RPMI 5 mM glucose + 10% FBS, 0.000781 µM	84.4	99.3	99.4
RPMI 5 mM glucose + 10% FBS, 0.00234 µM	89.3	92.4	95.2
RPMI 5 mM glucose + 10% FBS, 0.00702 µM	98.8	104	116
RPMI 5 mM glucose + 10% FBS, 0.0211 µM	96	95.9	101
RPMI 5 mM glucose + 10% FBS, 0.0632 µM	93	101	109
RPMI 5 mM glucose + 10% FBS, 0.19 µM	92.2	88.6	93.9
RPMI 5 mM glucose + 10% FBS, 0.569 µM	99.9	98.6	94
RPMI 5 mM glucose + 10% FBS, 1.71 µM	94.2	94.9	112
RPMI 5 mM glucose + 10% FBS, 5.12 µM	89.8	96.2	109
RPMI 5 mM glucose + 10% FBS, 15.4 µM	96.8	92.8	96
RPMI 5 mM glucose + 10% FBS, 46.1 µM	83.4	94.5	96.5
RPMI 5 mM glucose + 10% dialyzed FBS, 0.000781 µM	96.2	97.1	94.7
RPMI 5 mM glucose + 10% dialyzed FBS, 0.00234 µM	91.5	89.1	103
RPMI 5 mM glucose + 10% dialyzed FBS, 0.00702 µM	93.3	95.8	107
RPMI 5 mM glucose + 10% dialyzed FBS, 0.0211 µM	108	90.1	104
RPMI 5 mM glucose + 10% dialyzed FBS, 0.0632 µM	91.6	92.6	97.1
RPMI 5 mM glucose + 10% dialyzed FBS, 0.19 µM	106	84.6	102
RPMI 5 mM glucose + 10% dialyzed FBS, 0.569 µM	102	87.9	115
RPMI 5 mM glucose + 10% dialyzed FBS, 1.71 µM	83.6	89.3	100
RPMI 5 mM glucose + 10% dialyzed FBS, 5.12 µM	111	88.8	104
RPMI 5 mM glucose + 10% dialyzed FBS, 15.4 µM	95.4	85.8	103
RPMI 5 mM glucose + 10% dialyzed FBS, 46.1 µM	97.4	85	96.4

AUC of viability dose-response curve
Details	NOMO1 [4]	P12-Ichikawa [6]	SEM cells [5]
HPLM + 10% dialyzed FBS	460	473	475
RPMI 5 mM glucose + 10% FBS	442	459	471
RPMI 5 mM glucose + 10% dialyzed FBS	467	427	477
